Measured values as given in US20090275583A1, “ANTIVIRAL COMPOUNDS AND USE THEREOF” (Myriad Genetics, Incorporated, priority 2006, published 2009).
Read-outs that look alike come from different tables or passages of the source.

How the values were obtained:
[1] = tested on: HIV-1 laboratory strain, NL4-3; test: MT-4 cytoprotection assay; assay type: cell-based
In short: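 MT-4 cells mock- or batch-infected with NL4-3 (MOI 0.0005) for 2 h, washed, then cultured 4 days with increasing compound concentrations. Viability read by WST-1 tetrazolium reduction: cytoprotection in infected cells, toxicity in mock-infected cells.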

HIV-1NL4-3 = test: P4-MAGI assay; assay type: cell-based
In short: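 HeLa-derived CD4+ P4 cells carrying an LTR-driven lacZ were infected with HIV-1NL4-3 at MOI 1 with DEAE-Dextran, then compound added in increasing concentrations right after virus; infection reported as Tat-induced β-galactosidase. TC50 measured by WST-1 in mock-infected cells.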

[2] = Human immunodeficiency virus 1, NL43, MT4, 96 h, MT-4 cells, four days incubation, WST-1 readout, read-out: MT4 EC50
[3] = Human immunodeficiency virus 1, 24 h, P4 cells, 24 hour incubation, β-galactosidase expression, read-out: P4-MAGI IC50
[4] = Human immunodeficiency virus 1, text statement, less than about 100 nm, read-out: P4-MAGI assay IC50
[5] = Human immunodeficiency virus 1, NL43, less than about 100 nm, read-out: MT-4 assay EC50 (concentration of compound that reduces the virus induced cytopathic effect by 50%)

Row | Compound | EC50 [1, 2] [nM] | IC50 (HIV-1NL4-3; [3]) [nM] | IC50 (HIV-1NL4-3; [4]) [nM] | EC50 [1, 5] [nM]
1 | C=C(C)[C@@H]1CC[C@]2(C(=O)NCc3cccc(C(=O)NCCNC(=O)OCc4ccccc4)c3)CC[C@]3(C)C(CCC4[C@@]5(C)CC[C@H](O)C(C)(C)C5CC[C@]43C)C12 (some centres unmarked) [Example 5] | 2500 | 107 | – | –
2 | C=C(C)[C@@H]1CC[C@]2(C(=O)NCCc3cccc(C(=O)N[C@@H](C)c4ccccn4)c3)CC[C@]3(C)C(CCC4[C@@]5(C)CC[C@H](O)C(C)(C)C5CC[C@]43C)C12 (some centres unmarked) [Example 158] | > 10000 | 249 | – | –
3 | C=C(C)[C@@H]1CC[C@]2(C(=O)NCCc3ccc(C)c(C(=O)NCc4ccc(C(=O)O)cc4)c3)CC[C@]3(C)C(CCC4[C@@]5(C)CC[C@H](O)C(C)(C)C5CC[C@]43C)C12 (some centres unmarked) [Example 274] | 4320 | 84.5 | – | –
4 | C=C(C)[C@@H]1CC[C@]2(C(=O)NCCc3cccc(C(=O)NCc4ccc(C(=O)N[C@@H](C(=O)O)[C@@H](C)N5CCOCC5)cc4)c3)CC[C@]3(C)C(CCC4[C@@]5(C)CC[C@H](O)C(C)(C)C5CC[C@]43C)C12 (some centres unmarked) [Example 176] | 57 | 72 | – | –
5 | C=C(C)[C@@H]1CC[C@]2(C(=O)NCCc3cccc(C(=O)NCC(O)CO)c3)CC[C@]3(C)C(CCC4[C@@]5(C)CC[C@H](O)C(C)(C)C5CC[C@]43C)C12 (some centres unmarked) [Example 256] | 204 | 50.5 | – | –
6 | C=C(C)[C@@H]1CC[C@]2(C(=O)NCCc3cccc(C(=O)NCCC(=O)O)c3)CC[C@]3(C)C(CCC4[C@@]5(C)CC[C@H](O)C(C)(C)C5CC[C@]43C)C12 (some centres unmarked) [Example 57] | 1200 | 98.2 | < 100 | –
7 | C=C(C)[C@@H]1CC[C@]2(C(=O)NCCc3cccc(C(=O)NCc4cccc(C(=O)O)c4)c3)CC[C@]3(C)C(CCC4[C@@]5(C)CC[C@H](O)C(C)(C)C5CC[C@]43C)C12 (some centres unmarked) [Example 58] | 18 | 18.6 | < 100 | < 100
8 | C=C(C)[C@@H]1CC[C@]2(C(=O)NCc3ccc(F)c(C(=O)NCc4ccc(C(=O)O)cc4)c3)CC[C@]3(C)C(CCC4[C@@]5(C)CC[C@H](O)C(C)(C)C5CC[C@]43C)C12 (some centres unmarked) [Example 107] | 130 | 103 | – | –
9 | C=C(C)[C@@H]1CC[C@]2(C(=O)NCc3ccc(OC)c(C(=O)NCCCCC(=O)O)c3)CC[C@]3(C)C(CCC4[C@@]5(C)CC[C@H](O)C(C)(C)C5CC[C@]43C)C12 (some centres unmarked) [Example 114] | 211 | 48.4 | < 100 | –
10 | C=C(C)[C@@H]1CC[C@]2(C(=O)NCCc3cccc(C(=O)NCc4ccc(S(=O)(=O)NCCN5CCOCC5)cc4)c3)CC[C@]3(C)C(CCC4[C@@]5(C)CC[C@H](O)C(C)(C)C5CC[C@]43C)[C@@H]12 (some centres unmarked) [Example 148] | 53 | 6 | – | –
11 | C=C(C)[C@@H]1CC[C@]2(C(=O)NCCc3cccc(C(=O)NCc4ccc(C(=O)NCc5cccnc5C(=O)O)cc4)c3)CC[C@]3(C)C(CCC4[C@@]5(C)CC[C@H](O)C(C)(C)C5CC[C@]43C)C12 (some centres unmarked) [Example 193] | 2 | 9 | – | –
12 | C=C(C)[C@@H]1CC[C@]2(C(=O)NCCc3cccc(C(=O)NCc4ccc(-c5nn[nH]n5)cn4)c3)CC[C@]3(C)C(CCC4[C@@]5(C)CC[C@H](O)C(C)(C)C5CC[C@]43C)C12 (some centres unmarked) [Example 253] | 3.5 | 10.8 | – | –
13 | C=C(C)[C@@H]1CC[C@]2(C(=O)NCCc3cccc(C(=O)NCc4ccc(O)c(C(=O)OC)c4)c3)CC[C@]3(C)C(CCC4[C@@]5(C)CC[C@H](O)C(C)(C)C5CC[C@]43C)C12 (some centres unmarked) [Example 239] | 105 | 32.1 | – | –
14 | C=C(C)[C@@H]1CC[C@]2(C(=O)NCCc3cccc(C(=O)NCc4ccccc4O)c3)CC[C@]3(C)C(CCC4[C@@]5(C)CC[C@H](O)C(C)(C)C5CC[C@]43C)C12 (some centres unmarked) [Example 198] | 468 | 57.6 | – | –
15 | C=C(C)[C@@H]1CC[C@]2(C(=O)NCCc3cccc(C(=O)NCc4ccc(C(=O)NCCN5CCOCC5)cc4)c3)CC[C@]3(C)C(CCC4[C@@]5(C)CC[C@H](O)C(C)(C)C5CC[C@]43C)C12 (some centres unmarked) [Example 136] | 14.1 | 11.6 | < 100 | < 100
16 | C=C(C)[C@@H]1CC[C@]2(C(=O)NCc3cccc(C(=O)NCc4ccc(OCCCO)c(C(=O)O)c4)c3)CC[C@]3(C)C(CCC4[C@@]5(C)CC[C@H](O)C(C)(C)C5CC[C@]43C)C12 (some centres unmarked) [Example 125] | 56 | 42 | < 100 | < 100

Row | Compound | EC50 [1, 2] [nM] | IC50 (HIV-1NL4-3; [3]) [nM] | IC50 (HIV-1NL4-3; [4]) [nM] | EC50 [1, 5] [nM]
17 | C=C(C)[C@@H]1CC[C@]2(C(=O)NCCc3cccc(C(=O)N[C@H](C)C4CCC(C(=O)OC)CC4)c3)CC[C@]3(C)C(CCC4[C@@]5(C)CC[C@H](O)C(C)(C)C5CC[C@]43C)C12 (some centres unmarked) [Example 213] | 22 | 38.9 | – | –
18 | C=C(C)[C@@H]1CC[C@]2(C(=O)NCc3cccc(C(=O)NCc4ccc(C(=O)OC)s4)c3)CC[C@]3(C)C(CCC4[C@@]5(C)CC[C@H](O)C(C)(C)C5CC[C@]43C)C12 (some centres unmarked) [Example 29] | 18 | 37.9 | < 100 | < 100
19 | C=C(CSCCC(=O)O)[C@@H]1CC[C@]2(C(=O)NCCc3cccc(C(=O)NCc4ccc(C(=O)O)cc4)c3)CC[C@]3(C)C(CCC4[C@@]5(C)CC[C@H](O)C(C)(C)C5CC[C@]43C)C12 (some centres unmarked) [Example 268] | 411 | 104 | – | –
20 | C=C(C)[C@@H]1CC[C@]2(C(=O)NCCc3cccc(C(=O)NCc4cnc(C)cn4)c3)CC[C@]3(C)C(CCC4[C@@]5(C)CC[C@H](O)C(C)(C)C5CC[C@]43C)C12 (some centres unmarked) [Example 157] | 111 | 32 | – | –
21 | C=C(C)[C@@H]1CC[C@]2(C(=O)NCc3cccc(C(=O)NCc4ccc(C(=O)O)cc4F)c3)CC[C@]3(C)C(CCC4[C@@]5(C)CC[C@H](O)C(C)(C)C5CC[C@]43C)C12 (some centres unmarked) [Example 22] | 9.7 | 15.4 | – | < 100
22 | C=C(C)[C@@H]1CC[C@]2(C(=O)NCCc3cccc(C(=O)NCc4ccc(C(=O)OC)cc4)c3F)CC[C@]3(C)C(CCC4[C@@]5(C)CC[C@H](O)C(C)(C)C5CC[C@]43C)C12 (some centres unmarked) [Example 93] | 40 | 33.9 | < 100 | < 100
23 | C=C(C)[C@@H]1CC[C@]2(C(=O)NCCc3cccc(C(=O)NCc4ccc(C(=O)NCc5ncccc5C(=O)O)cc4)c3)CC[C@]3(C)C(CCC4[C@@]5(C)CC[C@H](O)C(C)(C)C5CC[C@]43C)C12 (some centres unmarked) [Example 195] | 5 | 6 | – | –
24 | C=C(C)[C@@H]1CC[C@]2(C(=O)NCCc3cccc(C(=O)NCc4ccc(O)cc4)c3)CC[C@]3(C)C(CCC4[C@@]5(C)CC[C@H](O)C(C)(C)C5CC[C@]43C)C12 (some centres unmarked) [Example 188] | 37 | 12 | – | –
25 | C=C(C)[C@@H]1CC[C@]2(C(=O)NCCc3cccc(C(=O)NCc4ccc(C(=O)O)o4)c3)CC[C@]3(C)C(CCC4[C@@]5(C)CC[C@H](O)C(C)(C)C5CC[C@]43C)C12 (some centres unmarked) [Example 156] | 8 | 51 | – | –
26 | C=C(C)[C@@H]1CC[C@]2(C(=O)NCc3cccc(C(=O)NCCc4ccc(S(N)(=O)=O)cc4)c3)CC[C@]3(C)C(CCC4[C@@]5(C)CC[C@H](O)C(C)(C)C5CC[C@]43C)C12 (some centres unmarked) [Example 45] | 94 | 15.9 | < 100 | < 100
27 | C=C(C)[C@@H]1CC[C@]2(C(=O)NCc3cccc(C(=O)NCCc4ccc(C(=O)O)s4)c3)CC[C@]3(C)C(CCC4[C@@]5(C)CC[C@H](O)C(C)(C)C5CC[C@]43C)C12 (some centres unmarked) [Example 48] | 63 | 29 | < 100 | < 100
28 | C=C(C)[C@@H]1CC[C@]2(C(=O)NCCc3cccc(C(=O)NCc4ccc(C(=O)O)cn4)c3)CC[C@]3(C)C(CCC4[C@@]5(C)CCC(=O)C(C)(C)C5CC[C@]43C)C12 (some centres unmarked) [Example 202] | 20.5 | 22.2 | – | –
29 | C=C(C)[C@@H]1CC[C@]2(C(=O)NCCc3cccc(C(=O)NCc4ccc(C(=O)N[C@@H](C(=O)O)C(C)C)cc4)c3)CC[C@]3(C)C(CCC4[C@@]5(C)CC[C@H](O)C(C)(C)C5CC[C@]43C)C12 (some centres unmarked) [Example 168] | 6 | 14 | – | –
30 | C=C(C)[C@@H]1CC[C@]2(C(=O)NCCc3cccc(C(=O)NCC(=O)OCC)c3)CC[C@]3(C)C(CCC4[C@@]5(C)CC[C@H](O)C(C)(C)C5CC[C@]43C)C12 (some centres unmarked) [Example 62] | 230 | 40.4 | < 100 | –
31 | C=C(C)[C@@H]1CC[C@]2(C(=O)NCCc3cccc(S(=O)(=O)NCc4ccc(C(=O)O)cc4)c3)CC[C@]3(C)C(CCC4[C@@]5(C)CC[C@H](O)C(C)(C)C5CC[C@]43C)C12 (some centres unmarked) [Example 251] | 258 | 68 | – | –
